Legend:
AMO-1 = test: MTS GI50, Myc-dependent panel; type: cell-based; settings: Homo sapiens, AMO1; AMO-1, 72 h; read-out: GI50
Method: (§1) Cytotoxicity Results in Myc-dependent Cancer Cell Lines.
(§2) MTS Cell Viability IC50 Assay. Drug solutions for MTS IC50 assays of suspension cell lines were made from DMSO stocks by serial-dilutions in 1×PBS (10010-031, Gibco). To set up treatments, drug solutions were plated in triplicates to 96-well tissue culture plates, to which cell-containing media was added to a total volume of 100 μL/well. 100%-viability controls were untreated cells. 2000 cells/well were plated for all suspension cell lines except 3000 cells/well for KMS-27 and 10000 cells/well for CHLA-32. Blanks were cell-free media. Drug treatments were maintained for 72 hr at 37° C. with 5% CO2. To quantify cells, CellTiter 96 AQueous MTS Reagent Powder (G1111, Promega) was dissolved and mixed with phenazine methosulfate (PMS, Sigma-Aldrich P9625) according to manufacturer's instructions. MTS/PMS mix ([…]) was added to treatment wells, 100%-viability control wells, and blank wells. Colors were developed at 37° C. with 5% CO2 for 4 h and absorbance at 490 nm was measured by BioTek Synergy 4 system. To obtain %-viability, A490 values were corrected by blank subtraction, normalized to 100%-viability control, and averaged. Average %-viabilities were plotted against drug dosages to obtain dose-response curves. […] For adherent cell lines, the MTS IC50 assays were conducted the same way as for suspension cell lines except for cell plating and drug treatment. For cell plating, 50 μL of 2000 cells were plated in triplicates to a 96-well tissue culture plate. Cells were allowed sufficient time to become adherent. Serial-diluted drug solutions were made the same way as in the MTS IC50 assays. To set up treatments, drug solutions were mixed with media to two-fold of the final concentrations, and 50 μL of such drug-media mix was then added to 50 μL of plated cells.

ARD = test: MTS GI50, Myc-dependent panel; type: cell-based; settings: ARD, 72 h; read-out: GI50
Method: as §1, §2

CCRF-CRM = test: MTS GI50, Myc-dependent panel; type: cell-based; settings: CCRF-CRM, 72 h; read-out: GI50
Method: as §1, §2

CHLA-32 = test: MTS GI50, Myc-dependent panel; type: cell-based; settings: CHLA-32, 72 h; read-out: GI50
Method: as §1, §2

CHLA-99 = test: MTS GI50, Myc-dependent panel; type: cell-based; settings: CHLA-99, 72 h; read-out: GI50
Method: as §1, §2

HL-60 = test: MTS GI50, Myc-dependent panel; type: cell-based; settings: Homo sapiens, HL-60, 72 h; read-out: GI50
Method: as §1, §2

K-562 = test: MTS GI50, Myc-dependent panel; type: cell-based; settings: Homo sapiens, K562; K-562, 72 h; read-out: GI50
Method: as §1, §2

KMS-27 = test: MTS GI50, Myc-dependent panel; type: cell-based; settings: KMS-27, 72 h; read-out: GI50
Method: as §1, §2

Kasumi-1 = test: MTS GI50, Myc-dependent panel; type: cell-based; settings: Homo sapiens; Kasumi-1, 72 h; read-out: GI50
Method: as §1, §2

L-363 = test: MTS GI50, Myc-dependent panel; type: cell-based; settings: Homo sapiens, L-363, 72 h; read-out: GI50
Method: as §1, §2

MCF-7 = test: MTS GI50, Myc-dependent panel; type: cell-based; settings: Homo sapiens, MCF7; MCF-7, 72 h; read-out: GI50
Method: as §1, §2

MDA-MB-231 = test: MTS GI50, Myc-dependent panel; type: cell-based; settings: Homo sapiens, MDA-MB-231, 72 h; read-out: GI50
Method: as §1, §2

MOLT-4 = test: MTS GI50, Myc-dependent panel; type: cell-based; settings: Homo sapiens, MOLT-4, 72 h; read-out: GI50
Method: as §1, §2

RD-ES = test: MTS GI50, Myc-dependent panel; type: cell-based; settings: 72 h, read-out: GI50
Method: as §1, §2

RPMI-8226 = test: MTS GI50, Myc-dependent panel; type: cell-based; settings: Homo sapiens, RPMI-8226, 72 h; read-out: GI50
Method: as §1, §2

RS4;11 = test: MTS GI50, Myc-dependent panel; type: cell-based; settings: Homo sapiens; RS4;11, 72 h; read-out: GI50
Method: as §1, §2

SK-N-MC = test: MTS GI50, Myc-dependent panel; type: cell-based; settings: Homo sapiens, 72 h, read-out: GI50
Method: as §1, §2

TC-106 = test: MTS GI50, Myc-dependent panel; type: cell-based; settings: TC-106, 72 h; read-out: GI50
Method: as §1, §2

TC-32 = test: MTS GI50, Myc-dependent panel; type: cell-based; settings: Homo sapiens, TC-32, 72 h; read-out: GI50
Method: as §1, §2

TC-71 = test: MTS GI50, Myc-dependent panel; type: cell-based; settings: TC-71, 72 h; read-out: GI50
Method: as §1, §2

THP-1 = test: MTS GI50, Myc-dependent panel; type: cell-based; settings: Homo sapiens, THP-1, 72 h; read-out: GI50
Method: as §1, §2

DU-145 (Prostate) = test: NCI-60 cytotoxicity assay; type: cell-based, human; settings: Homo sapiens; DU-145 prostate; 48 h, sulforhodamine B; read-out: Comparative Cytotoxicity GI50, Prostate DU-145
Method: (§3) The antiproliferative activities of the indenoisquinoline compounds are determined in the NCI-60 cancer cell lines of the National Cancer Institute Developmental Therapeutics Program (NCI-DTP). […] Cancer cells are incubated with the test compounds at five concentrations ranging from 100 μM to 10 nM for 48 h. After the treated cancer cells are stained with sulforhodamine B dye, the percentage growth is plotted as a function of the common logarithm of the tested compound concentration. […] The approximate average of GI50 values across the entire panel of NCI-60 cancer cell lines for each compound is recorded as the MGM value.
(§4) NCI-60 Cytotoxicity Assay. Compounds were submitted to the National Cancer Institute Developmental Therapeutic Program to determine their growth-inhibitory potentials in NCI-60 cell lines. All compounds satisfied the pre-screening proceeded into the 5-dose cell viability assay, in which cells were treated for 48 h at 5 dosages ranging from 100 μM to 10 nM.

HCT-116 (Colon) = test: NCI-60 cytotoxicity assay; type: cell-based, human; settings: Homo sapiens; HCT-116 colon; 48 h, sulforhodamine B; read-out: Comparative Cytotoxicity GI50, Colon HCT-116
Method: as §3, §4

HOP-62 (Lung) = test: NCI-60 cytotoxicity assay; type: cell-based, human; settings: Homo sapiens; HOP-62 lung; 48 h, sulforhodamine B; read-out: Comparative Cytotoxicity GI50, Lung HOP-62
Method: as §3, §4

MCF7 (Breast) = test: NCI-60 cytotoxicity assay; type: cell-based, human; settings: Homo sapiens; MCF7 breast; 48 h, sulforhodamine B; read-out: Comparative Cytotoxicity GI50, Breast MCE7
Method: as §3, §4

OVCAR-3 (Ovarian) = test: NCI-60 cytotoxicity assay; type: cell-based, human; settings: Homo sapiens; OVCAR-3 ovarian; 48 h, sulforhodamine B; read-out: Comparative Cytotoxicity GI50, Ovarian OVCAR-3
Method: as §3, §4

SN12C (Renal) = test: NCI-60 cytotoxicity assay; type: cell-based, human; settings: Homo sapiens; SN12C renal; 48 h, sulforhodamine B; read-out: Comparative Cytotoxicity GI50, Renal SN12C
Method: as §3, §4

UACC-62 (Melanoma) = test: NCI-60 cytotoxicity assay; type: cell-based, human; settings: Homo sapiens; UACC-62 melanoma; 48 h, sulforhodamine B; read-out: Comparative Cytotoxicity GI50, Melanoma UACC-62
Method: as §3, §4

SF-539 (CNS) = test: NCI-60 cytotoxicity assay; type: cell-based; settings: Homo sapiens; SF-539 CNS; 48 h, sulforhodamine B; read-out: Comparative Cytotoxicity GI50, CNS SF-539
Method: as §3, §4

NCI-60 cancer cell lines = test: NCI-60 cytotoxicity assay, MGM; type: cell-based; settings: Homo sapiens; entire panel of NCI-60 cancer cell lines; read-out: MGM (approximate average of GI50 values across the NCI-60 panel)
Method: as §3, §4

With `CC[C@@]1(O)C(=O)OCc2c1cc1n(c2=O)Cc2cc3ccccc3nc2-1` [CPT, Camptothecin] the GI50 (AMO-1) was 20 nM, the GI50 (ARD) was 11 nM and the GI50 (CCRF-CRM) was 4 nM. For the same molecule, the GI50 (CHLA-32) was 6 nM, the GI50 (CHLA-99) was 4 nM and the GI50 (HL-60) was 27 nM. It also gave a GI50 (K-562) of 22 nM, a GI50 (KMS-27) of 13 nM and a GI50 (Kasumi-1) of 85 nM. For the same molecule, the GI50 (L-363) was 10 nM, the GI50 (MCF-7) was 200 nM and the GI50 (MDA-MB-231) was 37 nM. For the same molecule, the GI50 (MOLT-4) was under 2 nM, the GI50 (RD-ES) was 5 nM and the GI50 (RPMI-8226) was 14 nM. The GI50 (RS4;11) was 6 nM, the GI50 (SK-N-MC) was 9 nM and the GI50 (TC-106) was 11 nM. It also gave a GI50 (TC-32) of 7 nM, a GI50 (TC-71) of 8 nM and a GI50 (THP-1) of 55 nM.
In the case of `COc1cnc2c(c1)C(=O)c1c-2n(CCCNCCO)c(=O)c2cc(OC)c(OC)cc12` [A12], the GI50 (DU-145 (Prostate)) was 730 nM, the GI50 (HCT-116 (Colon)) was 1150 nM and the GI50 (HOP-62 (Lung)) was 350 nM. For the same molecule, the GI50 (MCF7 (Breast)) was 170 nM, the GI50 (OVCAR-3 (Ovarian)) was 4520 nM and the GI50 (SN12C (Renal)) was 3280 nM. It also gave a GI50 (UACC-62 (Melanoma)) of 1170 nM, a GI50 (SF-539 (CNS)) of 490 nM and a GI50 (NCI-60 cancer cell lines) of 2090 nM.
Molecule `COc1cnc2c(c1)C(=O)c1c-2n(CCCn2ccnc2)c(=O)c2cc(OC)c(OC)cc12` [A8] has a GI50 (DU-145 (Prostate)) of 61 nM, a GI50 (HCT-116 (Colon)) of 110 nM and a GI50 (HOP-62 (Lung)) of 42 nM. For the same molecule, the GI50 (MCF7 (Breast)) was 30 nM, the GI50 (OVCAR-3 (Ovarian)) was 600 nM and the GI50 (SN12C (Renal)) was 56 nM. For the same molecule, the GI50 (UACC-62 (Melanoma)) was 40 nM, the GI50 (SF-539 (CNS)) was 53 nM and the GI50 (NCI-60 cancer cell lines) was 240 nM.
`COc1cnc2c(c1)C(=O)c1c-2n(CCCNCC2CC2)c(=O)c2cc(OC)c(OC)cc12` [A10] was tested, and the GI50 (DU-145 (Prostate)) was 960 nM, the GI50 (HCT-116 (Colon)) was 400 nM and the GI50 (HOP-62 (Lung)) was 670 nM. It also gave a GI50 (MCF7 (Breast)) of 160 nM, a GI50 (OVCAR-3 (Ovarian)) of 1820 nM and a GI50 (SN12C (Renal)) of 440 nM. For the same molecule, the GI50 (UACC-62 (Melanoma)) was 840 nM, the GI50 (SF-539 (CNS)) was 1000 nM and the GI50 (NCI-60 cancer cell lines) was 860 nM.

From patent publication US20240287089A1, “Preparation and Uses of 7-Azaindenoisoquinolines” (Purdue Research Foundation, priority 0001, published 2024)
